From PubChem BioAssay (NCI)
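1) Cells in 96-well plates. 2) Compound, 48 h, 5 concentrations. 3) Linear interpolation between surrounding doses. 4) Unreached endpoint = highest concentration. GI50: concentration for 50% inhibition of growth. At the TGI there is no net growth.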

Assays:
Experiment in all cases: NCI tumour cell line growth inhibition, 48 h
786-0 renal = tested on: 786-0 renal
A498 renal = tested on: A498 renal
A549 NSCLC = tested on: A549 NSCLC
ACHN renal = tested on: ACHN renal
BT-549 breast = tested on: BT-549 breast
CAKI-1 renal = tested on: CAKI-1 renal
CCRF-CEM leukemia = tested on: CCRF-CEM leukemia
COLO 205 colon = tested on: COLO 205 colon
DU-145 prostate = tested on: DU-145 prostate
EKVX NSCLC = tested on: EKVX NSCLC
HCC-2998 colon = tested on: HCC-2998 colon
HCT-116 colon = tested on: HCT-116 colon
HCT-15 colon = tested on: HCT-15 colon
HL-60(TB) leukemia = tested on: HL-60(TB) leukemia
HOP-62 NSCLC = tested on: HOP-62 NSCLC
HOP-92 NSCLC = tested on: HOP-92 NSCLC
HT29 colon = tested on: HT29 colon
IGROV1 ovarian = tested on: IGROV1 ovarian
K-562 leukemia = tested on: K-562 leukemia
KM12 colon = tested on: KM12 colon
LOX IMVI melanoma = tested on: LOX IMVI melanoma
M14 melanoma = tested on: M14 melanoma
MALME-3M melanoma = tested on: MALME-3M melanoma
MCF7 breast = tested on: MCF7 breast
MDA-MB-231 breast = tested on: MDA-MB-231 breast
MDA-MB-435 = tested on: MDA-MB-435
MDA-MB-468 breast = tested on: MDA-MB-468 breast
MOLT-4 leukemia = tested on: MOLT-4 leukemia
NCI-H226 lung = tested on: NCI-H226 lung
NCI-H23 lung = tested on: NCI-H23 lung
NCI-H460 lung = tested on: NCI-H460 lung
NCI-H522 lung = tested on: NCI-H522 lung
NCI/ADR-RES ovarian = tested on: NCI/ADR-RES ovarian
OVCAR-3 ovarian = tested on: OVCAR-3 ovarian
OVCAR-4 ovarian = tested on: OVCAR-4 ovarian
OVCAR-5 ovarian = tested on: OVCAR-5 ovarian
OVCAR-8 ovarian = tested on: OVCAR-8 ovarian
PC-3 prostate = tested on: PC-3 prostate
RPMI-8226 leukemia = tested on: RPMI-8226 leukemia
RXF 393 renal = tested on: RXF 393 renal
SF-268 CNS = tested on: SF-268 CNS
SF-295 CNS = tested on: SF-295 CNS
SF-539 CNS = tested on: SF-539 CNS
SK-MEL-28 melanoma = tested on: SK-MEL-28 melanoma
SK-MEL-5 melanoma = tested on: SK-MEL-5 melanoma
SK-OV-3 ovarian = tested on: SK-OV-3 ovarian
SN12C renal = tested on: SN12C renal
SNB-19 CNS = tested on: SNB-19 CNS
SNB-75 CNS = tested on: SNB-75 CNS
SR leukemia = tested on: SR leukemia
SW-620 colon = tested on: SW-620 colon
T-47D breast = tested on: T-47D breast
TK-10 renal = tested on: TK-10 renal
U251 CNS = tested on: U251 CNS
UACC-257 melanoma = tested on: UACC-257 melanoma
UACC-62 melanoma = tested on: UACC-62 melanoma
UO-31 renal = tested on: UO-31 renal

For `CC[C@]12C=CCN3CC[C@@]4(c5ccc(OC)cc5N(C)[C@H]4[C@@](O)(C(=O)OC)[C@@H]1OC(=O)CCCC[P+](c1ccc(C)cc1)(c1ccc(C)cc1)c1ccc(C)cc1)[C@@H]32`, which GI50 (786-0 renal) is on record?
Its GI50 is 902 nM.

What about the TGI (786-0 renal) of the same compound?
Its TGI is 2370 nM.

And the GI50 (A498 renal)?
The GI50 was 2090 nM.

What about the TGI (A498 renal) of the same compound?
The TGI was 5240 nM.

What about the GI50 (A549 NSCLC) of the same compound?
Its GI50 is 632 nM.

What about the TGI (A549 NSCLC) of the same compound?
Its TGI is 2760 nM.

What about the GI50 (ACHN renal) of the same compound?
Its GI50 is 1800 nM.

And the TGI (ACHN renal)?
The TGI was 4590 nM.

What about the GI50 (BT-549 breast) of the same compound?
Its GI50 is 389 nM.

What about the TGI (BT-549 breast) of the same compound?
The TGI was 1150 nM.

What about the GI50 (CAKI-1 renal) of the same compound?
Its GI50 is 2850 nM.

What about the TGI (CAKI-1 renal) of the same compound?
Its TGI is 7150 nM.

What about the GI50 (CCRF-CEM leukemia) of the same compound?
The GI50 was 476 nM.

What about the TGI (CCRF-CEM leukemia) of the same compound?
The TGI was 2060 nM.

What about the GI50 (COLO 205 colon) of the same compound?
The GI50 was 200 nM.

And the TGI (COLO 205 colon)?
Its TGI is 384 nM.

What about the GI50 (DU-145 prostate) of the same compound?
Its GI50 is 728 nM.

What about the TGI (DU-145 prostate) of the same compound?
The TGI was 4310 nM.

What about the GI50 (EKVX NSCLC) of the same compound?
Its GI50 is 680 nM.

And the TGI (EKVX NSCLC)?
Its TGI is 2590 nM.

And the GI50 (HCC-2998 colon)?
The GI50 was 416 nM.

And the TGI (HCC-2998 colon)?
Its TGI is 1510 nM.

What about the GI50 (HCT-116 colon) of the same compound?
The GI50 was 342 nM.

And the TGI (HCT-116 colon)?
Its TGI is 1460 nM.

What about the GI50 (HCT-15 colon) of the same compound?
Its GI50 is 2020 nM.

What about the TGI (HCT-15 colon) of the same compound?
Its TGI is 4350 nM.

What about the GI50 (HL-60(TB) leukemia) of the same compound?
Its GI50 is 191 nM.

And the TGI (HL-60(TB) leukemia)?
The TGI was 560 nM.

And the GI50 (HOP-62 NSCLC)?
Its GI50 is 731 nM.

What about the TGI (HOP-62 NSCLC) of the same compound?
Its TGI is 2000 nM.

What about the GI50 (HOP-92 NSCLC) of the same compound?
The GI50 was 295 nM.

What about the TGI (HOP-92 NSCLC) of the same compound?
Its TGI is 1160 nM.

What about the GI50 (HT29 colon) of the same compound?
The GI50 was 268 nM.

And the TGI (HT29 colon)?
The TGI was 783 nM.

What about the GI50 (IGROV1 ovarian) of the same compound?
Its GI50 is 351 nM.

What about the TGI (IGROV1 ovarian) of the same compound?
The TGI was 1150 nM.

And the GI50 (K-562 leukemia)?
Its GI50 is 300 nM.

What about the TGI (K-562 leukemia) of the same compound?
The TGI was 1870 nM.

And the GI50 (KM12 colon)?
Its GI50 is 431 nM.

And the TGI (KM12 colon)?
Its TGI is 1480 nM.

What about the GI50 (LOX IMVI melanoma) of the same compound?
The GI50 was 541 nM.

What about the TGI (LOX IMVI melanoma) of the same compound?
Its TGI is 1640 nM.

What about the GI50 (M14 melanoma) of the same compound?
The GI50 was 558 nM.

And the TGI (M14 melanoma)?
Its TGI is 1670 nM.

What about the GI50 (MALME-3M melanoma) of the same compound?
The GI50 was 482 nM.

What about the TGI (MALME-3M melanoma) of the same compound?
Its TGI is 1100 nM.

What about the GI50 (MCF7 breast) of the same compound?
The GI50 was 278 nM.

What about the TGI (MCF7 breast) of the same compound?
The TGI was 1150 nM.

What about the GI50 (MDA-MB-231 breast) of the same compound?
The GI50 was 238 nM.

And the TGI (MDA-MB-231 breast)?
The TGI was 654 nM.

What about the GI50 (MDA-MB-435) of the same compound?
The GI50 was 472 nM.

What about the TGI (MDA-MB-435) of the same compound?
The TGI was 1520 nM.

What about the GI50 (MDA-MB-468 breast) of the same compound?
Its GI50 is 150 nM.

And the TGI (MDA-MB-468 breast)?
The TGI was 476 nM.

And the GI50 (MOLT-4 leukemia)?
Its GI50 is 451 nM.

What about the TGI (MOLT-4 leukemia) of the same compound?
The TGI was 1780 nM.

And the GI50 (NCI-H226 lung)?
Its GI50 is 336 nM.

What about the TGI (NCI-H226 lung) of the same compound?
The TGI was 1450 nM.

And the GI50 (NCI-H23 lung)?
Its GI50 is 512 nM.

And the TGI (NCI-H23 lung)?
Its TGI is 1500 nM.

What about the GI50 (NCI-H460 lung) of the same compound?
The GI50 was 498 nM.

And the TGI (NCI-H460 lung)?
The TGI was 1710 nM.

And the GI50 (NCI-H522 lung)?
The GI50 was 296 nM.

And the TGI (NCI-H522 lung)?
The TGI was 1060 nM.

What about the GI50 (NCI/ADR-RES ovarian) of the same compound?
Its GI50 is 12000 nM.

What about the TGI (NCI/ADR-RES ovarian) of the same compound?
Its TGI is 34400 nM.

And the GI50 (OVCAR-3 ovarian)?
Its GI50 is 425 nM.

And the TGI (OVCAR-3 ovarian)?
Its TGI is 1560 nM.

And the GI50 (OVCAR-4 ovarian)?
Its GI50 is 636 nM.

And the TGI (OVCAR-4 ovarian)?
The TGI was 3770 nM.

What about the GI50 (OVCAR-5 ovarian) of the same compound?
Its GI50 is 592 nM.

And the TGI (OVCAR-5 ovarian)?
Its TGI is 1530 nM.

What about the GI50 (OVCAR-8 ovarian) of the same compound?
The GI50 was 1130 nM.

And the TGI (OVCAR-8 ovarian)?
Its TGI is 2490 nM.

And the GI50 (PC-3 prostate)?
Its GI50 is 313 nM.

And the TGI (PC-3 prostate)?
The TGI was 1400 nM.

What about the GI50 (RPMI-8226 leukemia) of the same compound?
Its GI50 is 202 nM.

And the TGI (RPMI-8226 leukemia)?
Its TGI is 1470 nM.

And the GI50 (RXF 393 renal)?
Its GI50 is 329 nM.

What about the TGI (RXF 393 renal) of the same compound?
Its TGI is 1240 nM.

What about the GI50 (SF-268 CNS) of the same compound?
Its GI50 is 692 nM.

What about the TGI (SF-268 CNS) of the same compound?
Its TGI is 2110 nM.

What about the GI50 (SF-295 CNS) of the same compound?
Its GI50 is 691 nM.

And the TGI (SF-295 CNS)?
The TGI was 1870 nM.

What about the GI50 (SF-539 CNS) of the same compound?
Its GI50 is 588 nM.

And the TGI (SF-539 CNS)?
Its TGI is 1620 nM.

What about the GI50 (SK-MEL-28 melanoma) of the same compound?
Its GI50 is 437 nM.

And the TGI (SK-MEL-28 melanoma)?
Its TGI is 1600 nM.

What about the GI50 (SK-MEL-5 melanoma) of the same compound?
Its GI50 is 590 nM.

What about the TGI (SK-MEL-5 melanoma) of the same compound?
The TGI was 1240 nM.

And the GI50 (SK-OV-3 ovarian)?
Its GI50 is 535 nM.

And the TGI (SK-OV-3 ovarian)?
The TGI was 1390 nM.

What about the GI50 (SN12C renal) of the same compound?
Its GI50 is 410 nM.

And the TGI (SN12C renal)?
The TGI was 1380 nM.

And the GI50 (SNB-19 CNS)?
Its GI50 is 342 nM.

What about the TGI (SNB-19 CNS) of the same compound?
The TGI was 1320 nM.

What about the GI50 (SNB-75 CNS) of the same compound?
Its GI50 is 242 nM.

What about the TGI (SNB-75 CNS) of the same compound?
Its TGI is 854 nM.

What about the GI50 (SR leukemia) of the same compound?
The GI50 was 365 nM.

What about the TGI (SR leukemia) of the same compound?
The TGI was 1500 nM.

What about the GI50 (SW-620 colon) of the same compound?
The GI50 was 601 nM.

What about the TGI (SW-620 colon) of the same compound?
Its TGI is 1960 nM.

And the GI50 (T-47D breast)?
Its GI50 is 305 nM.

And the TGI (T-47D breast)?
Its TGI is 1960 nM.

What about the GI50 (TK-10 renal) of the same compound?
Its GI50 is 1040 nM.

What about the TGI (TK-10 renal) of the same compound?
Its TGI is 2440 nM.

What about the GI50 (U251 CNS) of the same compound?
Its GI50 is 332 nM.

And the TGI (U251 CNS)?
The TGI was 1410 nM.

And the GI50 (UACC-257 melanoma)?
The GI50 was 562 nM.

What about the TGI (UACC-257 melanoma) of the same compound?
The TGI was 1900 nM.

And the GI50 (UACC-62 melanoma)?
The GI50 was 406 nM.

And the TGI (UACC-62 melanoma)?
Its TGI is 1180 nM.

And the GI50 (UO-31 renal)?
The GI50 was 2040 nM.

And the TGI (UO-31 renal)?
The TGI was 7110 nM.
